# What was measured:
# KCNQ3/KCNQ5 = KCNQ3/KCNQ5 (Homo sapiens, UniProt O43525+Q9NR82); test: TEVC of KCNQ3/KCNQ5 channels; format: cell-based; conditions: similar potency
# Source text: As previously described (12), we generated cRNA transcripts encoding human KCNA1, KCNE1, KCNE2, KCNE3, KCNQ1, KCNQ2, KCNQ3, KCNQ4 or KCNQ5 by in vitro transcription using the T7 polymerase mMessage mMachine kit (Thermo Fisher Scientific), after vector linearization, from cDNA sub-cloned into plasmids incorporating Xenopus laevis β-globin 5′ and 3′ UTRs flanking the coding region to enhance translation and cRNA stability. We quantified cRNA by spectrophotometry. We generated mutant KCNQ2 and KCNQ3 cDNAs by site-directed mutagenesis with a QuikChange kit (Stratagene, San Diego, Calif.) and prepared the cRNAs as above. We injected defolliculated stage V and VI Xenopus laevis oocytes (Ecocyte Bioscience, Austin, Tex. and Xenoocyte, Dexter, Mich., US) with KCNE and/or KCNQ cRNAs (5-20 ng). […]
# We performed TEVC at room temperature using an OC-725C amplifier (Warner Instruments, Hamden, Conn.) and pClamp10 software (Molecular Devices, Sunnyvale, Calif.) 2-5 days after cRNA injection as described in the section above. […] We recorded currents in response to voltage pulses between −120 or −80 mV and +40 mV at 20 mV intervals from a holding potential of −80 mV, to yield current-voltage relationships, current magnitude, and for quantifying activation rate. We analyzed data using Clampfit (Molecular Devices) and Graphpad Prism software (GraphPad, San Diego, Calif., USA); values are stated as mean±SEM. […]
# [1] = tested on: water-injected control oocytes; test: TEVC of water-injected control oocytes (endogenous current, EM); format: cell-based, Xenopus laevis
# Protocol: TEVC recording was performed at room temperature with an OC-725C amplifier (Warner Instruments, Hamden, Conn.) and pClamp10.2 software (Molecular Devices, Sunnyvale, Calif.) 3-5 days after cRNA injection as described in the section above. Oocytes were placed in a small-volume oocyte bath (Warner) and viewed with a dissection microscope. Chemicals were sourced from Sigma. Bath solution was (in mM): 96 NaCl, 4 KCl, 1 MgCl2, 1 CaCl2. 10 HEPES (pH 7.6). […] MTX (DMSO), sorbic acid (ethanol), and glutaconic acid (molecular grade H2O) were stored at −20° C. as 1 M stocks. Oleamide was stored as a 1 mM stock in ethanol at 4° C. […] Currents were recorded in response to pulses between −80 and +40 mV at 20 mV intervals, or a single pulse to +40 mV, from a holding potential of −80 mV, to yield current-voltage relationships, current magnitude, and for quantifying activation rate. […]
# TEVC recording was performed at room temperature using a OC-725C amplifier (Warner Instruments, Hamden, Conn.) and pClamp8 software (Molecular Devices, Sunnyvale, Calif.) 2-5 days after cRNA injection as described in the section above. […] Currents were recorded in response to pulses between −80 mV and +40 mV at 20 mV intervals, or a single pulse to +40 mV, from a holding potential of −80 mV, to yield current-voltage relationships, current magnitude, and for quantifying activation rate. […]
SMILES,"efficacy on KCNQ3/KCNQ5, lower than on KCNQ5 (KCNQ3/KCNQ5)",effect on endogenous current or EM of water-injected control oocytes [1]
CCCCCCCCC/C=C/C=O [(E)-2-dodecenal],~30%,
"CC(=O)c1c(O)c(C)c(O)c(Cc2c(O)c3c(c(C(=O)/C=C/c4ccccc4)c2O)OC(C)(C)C=C3)c1O [MTX, mallotoxin]",,no effect
"NCC1(CC(=O)O)CCCCC1 [gabapentin, reference compound]",,no effect

# Source: patent US12268683B2, “Compounds and methods for synergistic activation of M channels” (THE REGENTS OF THE UNIVERSITY OF CALIFORNIA, priority 2018, dated 2025)
